How the values were obtained:
Format in all cases: tissue-based
D(3) dopamine receptor = D(3) dopamine receptor (Rattus norvegicus, UniProt P19020); assay: Displacement of [3H]7-OH-DPAT from dopamine D3 receptor in rat olfactory tubercle
[1] = molecular target: T1, Adrenergic receptor alpha-2 (Rattus norvegicus, UniProt P22086+P19328+P22909); assay: Displacement of [3H]rauwolscine from adrenergic alpha2 receptor in rat brain cortex
T1 sequence (P22086 whole entry): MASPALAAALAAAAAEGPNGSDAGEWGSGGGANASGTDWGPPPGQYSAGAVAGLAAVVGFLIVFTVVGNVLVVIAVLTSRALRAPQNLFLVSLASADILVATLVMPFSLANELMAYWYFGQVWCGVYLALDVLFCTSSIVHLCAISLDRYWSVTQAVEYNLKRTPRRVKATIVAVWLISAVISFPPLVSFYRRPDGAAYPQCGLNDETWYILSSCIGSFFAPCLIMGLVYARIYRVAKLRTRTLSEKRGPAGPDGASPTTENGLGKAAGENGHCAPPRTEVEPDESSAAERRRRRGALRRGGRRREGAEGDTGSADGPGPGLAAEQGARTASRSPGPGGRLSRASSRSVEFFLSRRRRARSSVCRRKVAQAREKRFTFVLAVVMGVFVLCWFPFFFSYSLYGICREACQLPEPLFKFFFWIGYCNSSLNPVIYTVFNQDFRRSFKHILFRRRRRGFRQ
T1 sequence (P19328 whole entry): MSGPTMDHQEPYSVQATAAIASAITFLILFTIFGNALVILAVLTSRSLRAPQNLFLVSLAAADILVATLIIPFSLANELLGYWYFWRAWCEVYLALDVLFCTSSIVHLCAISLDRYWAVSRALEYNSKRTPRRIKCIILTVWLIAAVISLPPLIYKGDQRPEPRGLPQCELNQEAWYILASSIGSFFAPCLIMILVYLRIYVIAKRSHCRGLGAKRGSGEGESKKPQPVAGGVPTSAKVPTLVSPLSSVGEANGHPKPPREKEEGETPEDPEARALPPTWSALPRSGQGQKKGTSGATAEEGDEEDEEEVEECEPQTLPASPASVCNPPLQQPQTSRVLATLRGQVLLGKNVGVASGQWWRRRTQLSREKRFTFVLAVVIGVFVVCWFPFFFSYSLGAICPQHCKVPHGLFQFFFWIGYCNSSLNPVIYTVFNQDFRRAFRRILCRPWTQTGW
T1 sequence (P22909 whole entry): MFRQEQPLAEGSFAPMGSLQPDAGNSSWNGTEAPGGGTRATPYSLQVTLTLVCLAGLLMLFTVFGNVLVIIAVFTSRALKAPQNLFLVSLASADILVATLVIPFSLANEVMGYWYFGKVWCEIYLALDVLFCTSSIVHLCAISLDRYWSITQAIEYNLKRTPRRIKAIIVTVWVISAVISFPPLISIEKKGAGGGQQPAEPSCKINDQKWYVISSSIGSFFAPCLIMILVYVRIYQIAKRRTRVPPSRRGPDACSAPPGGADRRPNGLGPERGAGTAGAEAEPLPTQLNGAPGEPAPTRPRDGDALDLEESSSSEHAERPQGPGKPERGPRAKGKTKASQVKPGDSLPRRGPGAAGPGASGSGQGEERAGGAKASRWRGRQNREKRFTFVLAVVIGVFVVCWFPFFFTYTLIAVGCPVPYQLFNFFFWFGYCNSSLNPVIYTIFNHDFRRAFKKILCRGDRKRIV

[2] = molecular target: T2, 5-hydroxytryptamine receptor 1A (Rattus norvegicus, UniProt P19327); assay: Displacement of [3H]8-OH-DPAT from 5HT1A receptor in rat brain cortex
T2 sequence (P19327 whole entry): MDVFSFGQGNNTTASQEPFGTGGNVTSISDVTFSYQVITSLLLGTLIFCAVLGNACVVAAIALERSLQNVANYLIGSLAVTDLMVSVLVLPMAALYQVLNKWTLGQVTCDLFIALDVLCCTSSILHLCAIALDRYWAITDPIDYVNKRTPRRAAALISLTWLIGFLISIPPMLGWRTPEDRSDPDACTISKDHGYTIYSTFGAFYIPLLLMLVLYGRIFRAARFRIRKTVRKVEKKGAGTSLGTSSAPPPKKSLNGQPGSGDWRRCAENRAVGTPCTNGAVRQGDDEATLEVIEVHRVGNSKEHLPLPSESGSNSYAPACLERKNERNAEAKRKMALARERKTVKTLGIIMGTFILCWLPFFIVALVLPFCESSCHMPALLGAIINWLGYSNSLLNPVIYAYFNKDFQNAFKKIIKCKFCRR

D(3) dopamine receptor, sequence (P19020 whole entry): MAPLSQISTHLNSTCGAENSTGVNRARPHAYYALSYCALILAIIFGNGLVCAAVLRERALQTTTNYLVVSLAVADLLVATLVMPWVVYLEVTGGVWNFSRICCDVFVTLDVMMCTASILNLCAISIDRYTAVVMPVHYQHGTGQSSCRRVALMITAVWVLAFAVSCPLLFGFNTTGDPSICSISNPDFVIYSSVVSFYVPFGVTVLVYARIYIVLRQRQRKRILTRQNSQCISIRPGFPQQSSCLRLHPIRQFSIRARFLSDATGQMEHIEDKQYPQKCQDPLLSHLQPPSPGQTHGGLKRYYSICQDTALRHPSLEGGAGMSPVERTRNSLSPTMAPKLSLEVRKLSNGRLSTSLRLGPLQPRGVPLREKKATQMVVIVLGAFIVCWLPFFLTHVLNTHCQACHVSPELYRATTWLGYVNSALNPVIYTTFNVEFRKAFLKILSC

Compound	Ki (D(3) dopamine receptor) [nM]	Ki [1] [nM]	Ki [2] [nM]
O=S(=O)(c1ccc(C(F)(F)F)cc1)N1CCC(CN2CCC(c3noc4cc(F)ccc34)CC2)CC1	237	568.3	21.9
O=[N+]([O-])c1ccc(S(=O)(=O)N2CCC(CN3CCC(c4noc5cc(F)ccc45)CC3)CC2)cc1	16.6	967.3	16.9

Reference: ChEMBL document CHEMBL3739370, “Synthesis and evaluation of amide, sulfonamide and urea benzisoxazole derivatives as potential atypical antipsychotics” (Medchemcomm, 2015)
